Here are results for 3 compounds from patent US20240285571A1, “METHODS OF TREATING BONE INFECTIONS” (MICROBION CORPORATION, priority 2020, published 2024).

Converted amounts (≈) assume the structure as drawn. Where two headings read alike, the source gives them in different places. Some results are limits rather than exact numbers.

Experiment [1] deals with C. albicans. Description: Broth microdilution MIC, yeast (Example 5). Format: cell-based. To be noted: Sensitive. On the procedure:
(§1) Test and Comparator Agents: The test agents were stored at room temperature until assayed. All test agents were suspended and diluted in 100% dimethylsulfoxide (DMSO), and were ultimately tested at a final concentration of 0.06-64 μg/mL. The stock solutions were allowed to stand for at least 1 hr prior to use to auto-sterilize.
(§2) The susceptibility of yeast isolates was determined by broth microdilution in RPMI medium (HyClone Laboratories, Logan, UT; Lot No. AZC184041B) buffered with 0.165 M MOPS (Calbiochem, Billerica, MA; Lot No. 2694962). The pH of the medium was adjusted to 7.0 with 1 N NaOH, sterile filtered using a 0.2 μm PES filter, and stored at 4° C. until used.
(§3) Broth Microdilution MC Testing (Aerobic Bacteria and Yeast): The broth microdilution assay method employed for the susceptibility testing of aerobic bacteria (excluding N. gonorrhoeae which was evaluated by agar dilution) and yeast essentially followed the procedures described by CLSI (3, 4, 7, 8) and employed automated liquid handlers to conduct serial dilutions and liquid transfers. Automated liquid handlers included the Multidrop 384 (Labsystems, Helsinki, Finland) and Biomek 2000 (Beckman Coulter, Fullerton CA). The wells in columns 2-12 in standard 96-well microdilution plates (Costar 3795) were filled with 150 μl of the correct diluent. These would become the ‘mother plates’ from which ‘daughter’ or test plates would be prepared. The drugs (300 μL at 40× the desired top concentration in the test plates) were dispensed into the appropriate well in Column 1 of the mother plates. The Biomek 2000 was used to make serial two-fold dilutions through Column 11 in the “mother plate”. The wells of Column 12 contained no drug and ultimately served as the organism growth control wells.
(§4) The daughter plates were loaded with 185 μL per well of the appropriate test media using the Multidrop 384. The daughter plates were prepared using the Biomek FX which transferred 5 μL of drug solution from each well of a mother plate to the corresponding well of the correct daughter plate in a single step.
(§5) A standardized inoculum of each organism was prepared per CLSI methods (3, 7). Isolated colonies of each test isolate were picked from the primary plate and a suspension was prepared to equal a 0.5 McFarland turbidity standard. Standardized suspensions were then diluted […] (1:100 for yeast, 1:20 for bacteria). After dilution, the inoculum suspensions were then transferred to compartments of sterile reservoirs divided by length (Beckman Coulter), and the Biomek 2000 was used to inoculate all plates. Daughter plates were placed on the Biomek 2000 in reverse orientation so that plates were inoculated from low to high drug concentration.
(§6) The Biomek 2000 delivered 10 μL of standardized inoculum into each well of the appropriate daughter plate for an additional 1:20 dilution. […] The final concentration of DMSO (if used as a solvent) in the test well was 2.5%.
(§7) Plates were stacked 4 high, covered with a lid on the top plate, placed into plastic bags, and incubated at 35° C. for approximately 24-48 hr for all yeast isolates and 16-24 hr for aerobic bacteria. Plates were viewed from the bottom using a plate viewer. […] MIC endpoints for the test agents and control compounds were read per CLSI criteria (3, 7).
On the technique in general: Broth dilution looks for growth in wells or tubes with falling amounts of substance.

The test system of experiment [2] is C. glabrata. The experiment is described as follows: Broth microdilution MIC, yeast (Example 5). The format is cell-based. As to conditions: FLUR. Here is the method:
as §1, §2, §3, §4, §5, §6, §7

The subject of experiment [3] is C. parapsilosis. Description: Broth microdilution MIC, yeast (Example 5). The format is cell-based. On the procedure:
as §1, §2, §3, §4, §5, §6, §7

The subject of experiment [4] is C. tropicalis. The experiment is described as follows: Broth microdilution MIC, yeast (Example 5). Format: cell-based. As to conditions: FLUR. Here is the method: as §1, §2, §3, §4, §5, §6, §7
The subject of experiment [5] is C. parapsilosis. As to conditions: C. parapsilosis MMX 2323 (ATCC 22019), cited from earlier work.
In experiment [6] the test system is S. aureus. The experiment is described as follows: Broth microdilution MIC (Example 5). The format is cell-based, Staphylococcus aureus. As to conditions: Staphylococcus aureus. On the procedure: (§8) Test and Comparator Agents: The test agents were stored at room temperature until assayed. […] The stock solutions were allowed to stand for at least 1 hr prior to use to auto-sterilize.
(§9) TestMedia: Test media were prepared and stored in accordance with guidelines from CLSI (4, 6, 7).
(§10) Broth Microdilution MC Testing (Aerobic Bacteria and Yeast): The broth microdilution assay method employed for the susceptibility testing of aerobic bacteria (excluding N. gonorrhoeae which was evaluated by agar dilution) and yeast essentially followed the procedures described by CLSI (3, 4, 7, 8) and employed automated liquid handlers to conduct serial dilutions and liquid transfers. […] These would become the ‘mother plates’ from which ‘daughter’ or test plates would be prepared. The drugs (300 μL at 40× the desired top concentration in the test plates) were dispensed into the appropriate well in Column 1 of the mother plates. The Biomek 2000 was used to make serial two-fold dilutions through Column 11 in the “mother plate”. The wells of Column 12 contained no drug and ultimately served as the organism growth control wells.
(§11) The daughter plates were prepared using the Biomek FX which transferred 5 μL of drug solution from each well of a mother plate to the corresponding well of the correct daughter plate in a single step.
as §5
(§12) The Biomek 2000 delivered 10 μL of standardized inoculum into each well of the appropriate daughter plate for an additional 1:20 dilution.
as §7

Experiment [7] concerns E. faecalis. Description: Broth microdilution MIC (Example 5). Format: cell-based, Enterococcus faecalis. As to conditions: VRE. Here is the method: as §8, §9, §10, §11, §5, §12, §7
Experiment [8] deals with E. faecium. Description: Broth microdilution MIC (Example 5). The format is cell-based. On the procedure:
as §8, §9, §10, §11, §5, §12, §7

Experiment [9] has as its system S. agalactiae. Description: Broth microdilution MIC (Example 5). The format is cell-based. As to conditions: Streptococcus agalactiae. On the procedure:
as §8, §9, §10, §11, §5, §12, §7

Experiment [10] has as its system S. pneumoniae. The experiment is described as follows: Broth microdilution MIC (Example 5). The format is cell-based. As to conditions: Streptococcus pneumoniae. Here is the method:
as §8, §9, §10, §11, §5, §12, §7

For experiment [11], the system named is S. pyogenes. Description: Broth microdilution MIC (Example 5). Format: cell-based. Here is the method: as §8, §9, §10, §11, §5, §12, §7
Experiment [12] concerns vancomycin-intermediate Staphylococcus aureus. Description: Broth microdilution MIC (Example 6). Format: cell-based. As to conditions: Staphylococcus aureus, NRS 13 / VISA, read-out: MIC values. An outline of the steps: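 CLSI broth microdilution in cation-adjusted Mueller Hinton broth, test agents 0.06-64 μg/mL from DMSO stocks, inoculum approx. 5×10^5 CFU/mL. Incubation 35° C for 16–20 hr; MIC taken as lowest concentration inhibiting visible growth.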

In experiment [13] the test system is S. pneumoniae. To be noted: S. pneumoniae MMX 6837 (ATCC 49619); cited from earlier work.

With `C[C@@H]1[C@H](O)[C@@H](C)/C=C/C=C/C=C/C=C/C=C/C=C/C=C/[C@H](O[C@@H]2O[C@H](C)[C@@H](O)[C@H](N)[C@@H]2O)C[C@@H]2O[C@](O)(C[C@@H](O)C[C@@H](O)[C@H](O)CC[C@@H](O)C[C@@H](O)CC(=O)O[C@H]1C)C[C@H](O)[C@H]2C(=O)O` [Amphotericin B, reference compound], the MIC in [1] (C. albicans MMX 7039, 24 hr) is 0.5, 0.5 μg/mL; in experiment [1] (C. albicans MMX 7039, 48 hr), 0.5, 0.5 μg/mL; in experiment [1] (C. albicans MMX 7055, 24 hr) it was 0.25 µg/mL (≈ 0.271 µM); in experiment [1] (C. albicans MMX 7055, 48 hr) it was 0.5 µg/mL (≈ 0.541 µM); in experiment [2] (C. glabrata MMX 7086, 24 hr), 0.5 µg/mL (≈ 0.541 µM); in experiment [2] (C. glabrata MMX 7086, 48 hr), 1 µg/mL (≈ 1.08 µM). Besides, the MIC worked out at 0.5 µg/mL (≈ 0.541 µM) in experiment [2] (C. glabrata MMX 7318, 24 hr); 1 µg/mL (≈ 1.08 µM) in experiment [2] (C. glabrata MMX 7318, 48 hr); 0.5 µg/mL (≈ 0.541 µM) in experiment [3] (C. parapsilosis MMX 2323 (ATCC 22019), QC, 24 hr); 1 µg/mL (≈ 1.08 µM) in experiment [3] (C. parapsilosis MMX 2323 (ATCC 22019), QC, 48 hr); 0.5 µg/mL (≈ 0.541 µM) in [3] (C. parapsilosis MMX 7370, FLUR, 24 hr); 1 µg/mL (≈ 1.08 µM) in experiment [3] (C. parapsilosis MMX 7370, FLUR, 48 hr). In addition, the MIC in experiment [3] (C. parapsilosis MMX 7555, FLUR, 24 hr) was 0.5, 0.5 μg/mL; in [3] (C. parapsilosis MMX 7555, FLUR, 48 hr), 0.5, 0.5 μg/mL; in experiment [4] (C. tropicalis MMX 7247, 24 hr), 0.5 µg/mL (≈ 0.541 µM); in experiment [4] (C. tropicalis MMX 7247, 48 hr), 1 µg/mL (≈ 1.08 µM); in experiment [4] (C. tropicalis MMX 7248, 24 hr) it was 0.5 µg/mL (≈ 0.541 µM); in experiment [4] (C. tropicalis MMX 7248, 48 hr), 1 µg/mL (≈ 1.08 µM). In addition, the MIC in experiment [4] (C. tropicalis MMX 7360, 24 hr) is given as 0.5, 0.5 μg/mL; in experiment [4] (C. tropicalis MMX 7360, 48 hr), 0.5, 0.5 μg/mL. The “CLSI QC range of MIC” value is 0.25 to 2 µg/mL in [5] (24 hr) and 0.5 to 4 µg/mL in experiment [5] (48 hr).
Regarding `OC(Cn1cncn1)(Cn1cncn1)c1ccc(F)cc1F` [Fluconazole], the results for the “CLSI QC range of MIC” value in experiment [5] (24 hr) and in [5] (48 hr) were 0.5 to 4 µg/mL and 1 to 4 µg/mL, respectively.
With `CN[C@H](CC(C)C)C(=O)N[C@H]1C(=O)N[C@@H](CC(N)=O)C(=O)N[C@H]2C(=O)N[C@H]3C(=O)N[C@H](C(=O)N[C@H](C(=O)O)c4cc(O)cc(O)c4-c4cc3ccc4O)[C@H](O)c3ccc(c(Cl)c3)Oc3cc2cc(c3O[C@@H]2O[C@H](CO)[C@@H](O)[C@H](O)[C@H]2O[C@H]2C[C@](C)(N)[C@H](O)[C@H](C)O2)Oc2ccc(cc2Cl)[C@H]1O` [Vancomycin], the MIC in experiment [6] (ATCC 29213 / MSSA, S. aureus MMX 101 (ATCC 29213), QC, MSSA) turned out to be 1 µg/mL (≈ 0.69 µM); in [6] (MRSA, S. aureus MMX 5373) it was 2 µg/mL (≈ 1.38 µM); in experiment [6] (MRSA, S. aureus MMX 6311) it was 0.25 µg/mL (≈ 0.173 µM); in experiment [6] (MRSA, S. aureus MMX 9203), 2 µg/mL (≈ 1.38 µM); in [6] (MRSA, S. aureus MMX 9204), 1 µg/mL (≈ 0.69 µM); in [6] (MRSA, S. aureus MMX 9205) it was 2 µg/mL (≈ 1.38 µM). The MIC in [7] (E. faecalis MMX 8961) is above 64 µg/mL; in experiment [7] (E. faecalis MMX 8962), above 64 µg/mL; in experiment [7] (Enterococcus faecalis) it was above 64 µg/mL; in experiment [8] (E. faecium MMX 485, VRE vanA), above 64 µg/mL; in experiment [8] (Enterococcus faecium, VRE), above 64 µg/mL; in experiment [9] (S. agalactiae MMX 3741, ERYR CCR), 0.5 µg/mL (≈ 0.345 µM). The MIC in [9] (S. agalactiae MMX 3743, ERYR CCR) was 0.5 µg/mL (≈ 0.345 µM); in [9] (S. agalactiae MMX 4077, ERYR CCR), 0.5 µg/mL (≈ 0.345 µM); in [9] (S. agalactiae MMX 4079, ERYR CCR PenR MEMR), 2 µg/mL (≈ 1.38 µM); in experiment [9] (S. agalactiae MMX 4086, ERYR CCR) it was 1 µg/mL (≈ 0.69 µM); in [10] (ATCC49619, S. pneumoniae MMX 6837 (ATCC 49619), QC) it was 0.25 µg/mL (≈ 0.173 µM); in experiment [10] (S. pneumoniae MMX 880, LevR SXTR CCR EryR PenR) it was 0.5 µg/mL (≈ 0.345 µM). Also, the MIC in experiment [10] (S. pneumoniae MMX 937, MemR SXTR CCR EryR PenR) worked out at 0.5 µg/mL (≈ 0.345 µM); in experiment [10] (S. pneumoniae MMX 3959, CCR EryR), 0.5 µg/mL (≈ 0.345 µM); in [10] (S. pneumoniae MMX 5440, MemR SXTR CCR EryR PenR), 0.25 µg/mL (≈ 0.173 µM); in experiment [10] (S. pneumoniae MMX 5445, MemR SXTR CCR EryR PenR) it was 0.25 µg/mL (≈ 0.173 µM); in [10] (S. pneumoniae MMX 8133, MemR SXTR CCR EryR PenR), 0.25 µg/mL (≈ 0.173 µM); in experiment [11] (S. pyogenes MMX 3820, ERYR CLIR) it was 0.5 µg/mL (≈ 0.345 µM). Further, the MIC was found to be 0.5 µg/mL (≈ 0.345 µM) in experiment [11] (S. pyogenes MMX 3919, ERYR); 0.5 µg/mL (≈ 0.345 µM) in experiment [11] (S. pyogenes MMX 3929, ERYR CCR); 0.5 µg/mL (≈ 0.345 µM) in [11] (S. pyogenes MMX 5091, ERYR CCR); 0.5 µg/mL (≈ 0.345 µM) in [11] (Streptococcus pyogenes); 2 µg/mL in [12]. In addition, the “CLSI QC range of MIC” value in [13] was “(0.12-0.5) μg/mL”.

One may read the MIC as the lowest concentration that inhibits growth of the organism.
